Key:
α1 GlyR [1] = test system: α1 GlyR; parameters: method as in Raafat et al., 2010; details: non-competitive inhibition; ref Raafat et al., 2010; cited from earlier work
α1 GlyR subunits = test system: α1 GlyR subunits; parameters: method as in Xiong et al., 2011; details: ref Xiong et al., 2011; cited from earlier work
α3 GlyR subunits = test system: α3 GlyR subunits; parameters: method as in Xiong et al., 2011; details: ref Xiong et al., 2011; cited from earlier work
heteromeric α1/β GlyRs = molecular target: T1, heteromeric α1/β GlyRs (Homo sapiens, UniProt P23415); experiment: whole-cell patch-clamp of Igly, heteromeric α1/β GlyRs in CHO cells; assay type: cell-based; details: for increase of currents induced by subsaturating glycine: 25 μM ginkgolic acid, n = 5
T1 construct: expressed in transfected cells; host or cells: CHO-K1
T1 sequence (P48167 23-497 partner, one chain of several): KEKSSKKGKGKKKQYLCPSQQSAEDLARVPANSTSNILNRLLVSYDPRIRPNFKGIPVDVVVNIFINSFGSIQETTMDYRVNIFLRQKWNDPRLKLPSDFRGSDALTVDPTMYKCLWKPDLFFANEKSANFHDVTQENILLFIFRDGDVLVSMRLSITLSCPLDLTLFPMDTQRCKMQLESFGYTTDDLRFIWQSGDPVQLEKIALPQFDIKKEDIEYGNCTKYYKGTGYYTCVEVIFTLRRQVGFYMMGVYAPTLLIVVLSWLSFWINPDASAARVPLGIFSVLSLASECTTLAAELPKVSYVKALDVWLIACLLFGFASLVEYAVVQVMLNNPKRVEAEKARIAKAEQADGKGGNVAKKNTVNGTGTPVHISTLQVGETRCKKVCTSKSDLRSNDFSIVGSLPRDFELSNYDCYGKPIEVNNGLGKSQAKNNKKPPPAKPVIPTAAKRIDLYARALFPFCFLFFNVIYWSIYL
Procedure: (§1) For electrophysiological analysis cells were transfected with cDNAs of different receptor-operated channels. One day before the transfection, cells were plated on the coverslips (12–14 mm in diameter), which were placed inside 35-mm cell culture dishes with 2 ml of medium. CHO-K1 cells were transfected with the following cDNAs encoding GlyR subunits: human α1 (1 μg/1 μl), α2 (2 μg/1 μl), α3-long (2 μg/1 μl), and β (in combination with α1 or α2 subunits with the ratio of cDNAs concentrations 1α:5β); or with a mixture of cDNAs encoding GABAA receptors: α1-GFP (1 μg/μl), β2 (1 μg/μl), γ2 (1 μg/μl) using the Lipofectamine 2000 transfection protocol (Life Technology, USA). To facilitate identification of expressing cells, in the case of GlyR, green fluorescent protein (GFP, 0.5 μg/μl) was added to the transfection medium. Visualization of GABAAR expression was achieved by using the α1-GFP construct ([Bueno et al., 1998]). Three hours after the initial exposure of the cells to the cDNAs, a fresh solution replaced the old one. […] Electrophysiological recordings were performed on fluorescent cells 24–72 h after transfection.
Whole-cell recordings were performed at room temperature (20–25 °C) using an EPC-9 amplifier (HEKA Elektronik, Germany). Cells were continuously superfused with external solution containing (mM): NaCl 140, CaCl2 2, KCl 2.8, MgCl2 4, HEPES 20, glucose 10; pH 7.4; 320–330 mOsm. Two intracellular solutions were used for filling recording patch pipettes. First, mainly used, ‘CsCl solution’ contained (mM): CsCl 140, CaCl2 6, MgCl2 2, MgATP 2, NaGTP 0.4, HEPES/CsOH 10, BAPTA/KOH 20; pH 7.3; 290 mOsm. In the experiments performed with CsCl intracellular solution, ionic currents were recorded at holding potential (Vh) –30 mV. […] Two parallel rectangular tubes (100 μm × 100 μm) were positioned 40–50 μm above the recorded cell. The movement of the tubes was controlled by a computer-driven fast exchange system (SF 77A Perfusion Fast-Step, Warner, USA) allowing a 10–90% solution exchange in 3–5 ms, as measured by open electrode controls (1/10 external solution/water). […]

α2 GlyRs = molecular target: T2, α2 GlyRs (Homo sapiens, UniProt P23416); experiment: whole-cell patch-clamp of Igly, homomeric α2 GlyRs in CHO cells; assay type: cell-based
T2 construct: expressed in transfected cells; host or cells: CHO-K1
T2 sequence (P23416 28-452): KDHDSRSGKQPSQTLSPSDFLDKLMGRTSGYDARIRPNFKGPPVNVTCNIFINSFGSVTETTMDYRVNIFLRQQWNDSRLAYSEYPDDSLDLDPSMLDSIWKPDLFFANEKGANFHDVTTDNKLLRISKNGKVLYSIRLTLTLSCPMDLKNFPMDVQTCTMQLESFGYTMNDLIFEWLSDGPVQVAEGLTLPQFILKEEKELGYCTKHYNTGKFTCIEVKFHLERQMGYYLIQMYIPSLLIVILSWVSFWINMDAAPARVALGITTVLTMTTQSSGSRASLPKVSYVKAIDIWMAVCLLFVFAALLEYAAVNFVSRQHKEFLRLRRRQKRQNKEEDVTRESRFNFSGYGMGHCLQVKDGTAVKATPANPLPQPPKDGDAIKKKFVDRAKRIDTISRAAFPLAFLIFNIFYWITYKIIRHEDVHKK
Procedure: (§2) For electrophysiological analysis cells were transfected with cDNAs of different receptor-operated channels. One day before the transfection, cells were plated on the coverslips (12–14 mm in diameter), which were placed inside 35-mm cell culture dishes with 2 ml of medium. CHO-K1 cells were transfected with the following cDNAs encoding GlyR subunits: human α1 (1 μg/1 μl), α2 (2 μg/1 μl), α3-long (2 μg/1 μl), and β (in combination with α1 or α2 subunits with the ratio of cDNAs concentrations 1α:5β); or with a mixture of cDNAs encoding GABAA receptors: α1-GFP (1 μg/μl), β2 (1 μg/μl), γ2 (1 μg/μl) using the Lipofectamine 2000 transfection protocol (Life Technology, USA). […]
(§3) Whole-cell recordings were performed at room temperature (20–25 °C) using an EPC-9 amplifier (HEKA Elektronik, Germany). […] In the experiments performed with CsCl intracellular solution, ionic currents were recorded at holding potential (Vh) –30 mV. […] Two parallel rectangular tubes (100 μm × 100 μm) were positioned 40–50 μm above the recorded cell. The movement of the tubes was controlled by a computer-driven fast exchange system (SF 77A Perfusion Fast-Step, Warner, USA) allowing a 10–90% solution exchange in 3–5 ms, as measured by open electrode controls (1/10 external solution/water). […]
(§4) All electrophysiological results were analyzed using PatchMaster (HEKA Electronik, Germany) software. […]

[2] = molecular target: T3, α3 GlyR (α3L splice variant) (Homo sapiens, UniProt O75311); experiment: whole-cell patch-clamp of Igly, α3-long (α3L) GlyRs in CHO cells; assay type: cell-based
T3 construct: expressed in transfected cells; host or cells: CHO-K1
T3 sequence (O75311 34-464): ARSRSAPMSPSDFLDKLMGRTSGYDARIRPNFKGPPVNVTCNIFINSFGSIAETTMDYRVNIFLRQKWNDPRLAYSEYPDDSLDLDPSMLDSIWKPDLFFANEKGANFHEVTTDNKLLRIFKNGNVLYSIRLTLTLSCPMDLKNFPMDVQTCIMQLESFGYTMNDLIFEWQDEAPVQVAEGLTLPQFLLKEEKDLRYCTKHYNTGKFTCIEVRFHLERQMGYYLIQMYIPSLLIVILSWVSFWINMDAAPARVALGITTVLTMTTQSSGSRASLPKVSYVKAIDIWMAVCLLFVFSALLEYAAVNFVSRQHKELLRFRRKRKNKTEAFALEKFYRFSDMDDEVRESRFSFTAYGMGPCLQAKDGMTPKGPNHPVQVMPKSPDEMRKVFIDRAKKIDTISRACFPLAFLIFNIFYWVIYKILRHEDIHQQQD
Procedure: as §1
(§5) Whole-cell recordings were performed at room temperature (20–25 °C) using an EPC-9 amplifier (HEKA Elektronik, Germany). Cells were continuously superfused with external solution containing (mM): NaCl 140, CaCl2 2, KCl 2.8, MgCl2 4, HEPES 20, glucose 10; pH 7.4; 320–330 mOsm. Two intracellular solutions were used for filling recording patch pipettes. First, mainly used, ‘CsCl solution’ contained (mM): CsCl 140, CaCl2 6, MgCl2 2, MgATP 2, NaGTP 0.4, HEPES/CsOH 10, BAPTA/KOH 20; pH 7.3; 290 mOsm. In the experiments performed with CsCl intracellular solution, ionic currents were recorded at holding potential (Vh) –30 mV. In some experiments, ‘Kgluconate solution’ was used, in which CsCl 140 mM was replaced by KCl 20 mM + Kgluconate 120 mM. Recordings with this solutions were performed at Vh = 0 mV. Pipettes were pulled from borosilicate glass capillaries (Harvard Apparatus Ltd, USA) and had resistances of 5–10 MOhms. For rapid replacement of solutions, the fast application system was used in this study. Two parallel rectangular tubes (100 μm × 100 μm) were positioned 40–50 μm above the recorded cell. The movement of the tubes was controlled by a computer-driven fast exchange system (SF 77A Perfusion Fast-Step, Warner, USA) allowing a 10–90% solution exchange in 3–5 ms, as measured by open electrode controls (1/10 external solution/water).
In all experiments, the duration of the pulses of agonist was 2 s. The duration of ginkgolic acid application varied from 20 s to 6 min. Cells with low input resistance (<150 MOhms) and a rapid run-down (>30% with repetitive application) were excluded from analysis.
(§6) All electrophysiological results were analyzed using PatchMaster (HEKA Electronik, Germany) software. Dose–response curves were constructed by fitting values obtained at different concentrations, after normalization.

GABAAR α1/β2/γ2 = GABAAR α1/β2/γ2 (Homo sapiens, UniProt P14867+P47870); experiment: whole-cell patch-clamp of GABA-evoked currents, α1/β2/γ2 GABAARs in CHO cells; assay type: cell-based
GABAAR α1/β2/γ2, sequence (P14867 28-456): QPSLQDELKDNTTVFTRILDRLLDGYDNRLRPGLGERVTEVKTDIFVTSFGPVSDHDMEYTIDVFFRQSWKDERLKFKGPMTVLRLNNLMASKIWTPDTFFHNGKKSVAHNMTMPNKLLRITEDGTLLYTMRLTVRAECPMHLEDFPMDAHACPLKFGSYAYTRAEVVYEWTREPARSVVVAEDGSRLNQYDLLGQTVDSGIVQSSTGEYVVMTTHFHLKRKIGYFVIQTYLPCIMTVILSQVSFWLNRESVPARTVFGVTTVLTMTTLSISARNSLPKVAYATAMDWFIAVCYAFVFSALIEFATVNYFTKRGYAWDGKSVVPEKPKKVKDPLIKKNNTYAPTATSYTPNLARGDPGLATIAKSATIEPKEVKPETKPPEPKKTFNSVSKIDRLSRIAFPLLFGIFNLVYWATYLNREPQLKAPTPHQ
GABAAR α1/β2/γ2, sequence (P47870 26-512): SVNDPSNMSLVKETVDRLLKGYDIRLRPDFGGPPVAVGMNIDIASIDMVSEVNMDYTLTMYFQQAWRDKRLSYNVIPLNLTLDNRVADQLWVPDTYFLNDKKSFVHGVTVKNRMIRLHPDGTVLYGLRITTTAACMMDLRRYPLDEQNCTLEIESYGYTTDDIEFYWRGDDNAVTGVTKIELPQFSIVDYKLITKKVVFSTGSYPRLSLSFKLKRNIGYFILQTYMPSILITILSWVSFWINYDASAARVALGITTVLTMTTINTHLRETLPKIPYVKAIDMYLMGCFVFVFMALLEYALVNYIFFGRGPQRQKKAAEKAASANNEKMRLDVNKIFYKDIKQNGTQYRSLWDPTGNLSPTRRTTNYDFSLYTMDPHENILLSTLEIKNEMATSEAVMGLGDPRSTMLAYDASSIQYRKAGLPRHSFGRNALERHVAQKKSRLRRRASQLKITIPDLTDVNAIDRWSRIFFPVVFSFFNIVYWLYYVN
GABAAR α1/β2/γ2, sequence (P18507 40-475 partner): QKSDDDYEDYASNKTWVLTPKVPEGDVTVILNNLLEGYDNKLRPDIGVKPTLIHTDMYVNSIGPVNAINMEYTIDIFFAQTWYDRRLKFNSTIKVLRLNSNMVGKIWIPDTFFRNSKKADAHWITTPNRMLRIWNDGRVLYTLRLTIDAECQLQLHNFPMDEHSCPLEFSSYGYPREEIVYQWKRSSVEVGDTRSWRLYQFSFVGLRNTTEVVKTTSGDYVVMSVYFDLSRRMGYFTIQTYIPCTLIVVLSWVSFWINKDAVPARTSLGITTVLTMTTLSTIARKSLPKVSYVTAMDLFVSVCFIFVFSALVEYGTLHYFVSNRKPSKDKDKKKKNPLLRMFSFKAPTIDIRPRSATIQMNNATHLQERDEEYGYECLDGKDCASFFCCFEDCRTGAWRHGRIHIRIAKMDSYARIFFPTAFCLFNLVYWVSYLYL
Procedure: as §1
Whole-cell recordings were performed at room temperature (20–25 °C) using an EPC-9 amplifier (HEKA Elektronik, Germany). Cells were continuously superfused with external solution containing (mM): NaCl 140, CaCl2 2, KCl 2.8, MgCl2 4, HEPES 20, glucose 10; pH 7.4; 320–330 mOsm. Two intracellular solutions were used for filling recording patch pipettes. […] In the experiments performed with CsCl intracellular solution, ionic currents were recorded at holding potential (Vh) –30 mV. […] Two parallel rectangular tubes (100 μm × 100 μm) were positioned 40–50 μm above the recorded cell. The movement of the tubes was controlled by a computer-driven fast exchange system (SF 77A Perfusion Fast-Step, Warner, USA) allowing a 10–90% solution exchange in 3–5 ms, as measured by open electrode controls (1/10 external solution/water). […]
as §4

[3] = test system: protein phosphatase 2C (PP2C); parameters: method as in Ahlemeyer et al., 2001; details: ref Ahlemeyer et al., 2001; cited from earlier work
α1 GlyR [4] = molecular target: T4, α1 GlyR (Homo sapiens, UniProt P23415); experiment: whole-cell patch-clamp of Igly, α1 GlyR expressed in mouse neuroblastoma (N2a) cells; assay type: cell-based; parameters: expressed in transfected cells; host or cells: mouse neuroblastoma N2a; details: 3 μM ginkgolic acid, first two applications (Figure 2B)
T4 sequence (P23415 29-457): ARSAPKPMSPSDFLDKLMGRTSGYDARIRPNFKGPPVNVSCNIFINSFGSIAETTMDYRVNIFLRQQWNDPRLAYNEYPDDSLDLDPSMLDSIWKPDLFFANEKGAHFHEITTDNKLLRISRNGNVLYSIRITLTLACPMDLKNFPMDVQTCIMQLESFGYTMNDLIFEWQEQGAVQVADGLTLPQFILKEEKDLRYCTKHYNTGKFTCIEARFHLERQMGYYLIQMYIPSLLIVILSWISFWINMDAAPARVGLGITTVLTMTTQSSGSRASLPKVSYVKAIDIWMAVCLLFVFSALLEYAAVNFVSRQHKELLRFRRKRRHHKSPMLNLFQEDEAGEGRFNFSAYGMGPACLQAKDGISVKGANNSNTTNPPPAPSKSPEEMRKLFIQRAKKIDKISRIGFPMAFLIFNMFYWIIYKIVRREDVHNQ
Procedure: as §2, §3

α1 GlyR [5] = molecular target: T4, α1 GlyR; experiment: whole-cell patch-clamp of glycine-induced currents (Igly), homomeric α1 GlyRs expressed in CHO cells; details: for average Igly (mean current amplitude) after ginkgolic acid: 2 min, control 291 ± 65
Procedure: The experiments were carried out on cultured Chinese hamster ovary (CHO-K1) cells obtained from the American Type Tissue Culture Collection (ATCC, Molsheim, France) and on mouse neuroblastoma cells (N2a) cells that were maintained in culture conditions as previously described ([Waseem et al., 2010]; [Mukhtarov et al., 2013]).
as §1, §5
In all experiments, the duration of the pulses of agonist was 2 s. […] Cells with low input resistance (<150 MOhms) and a rapid run-down (>30% with repetitive application) were excluded from analysis.
as §6
where I is the normalized current amplitude induced by the agonist at concentration [A], nH is the Hill coefficient and EC50 is the concentration at which a half-maximum response was induced.
Paired and unpaired Student’s t-tests were used for statistical analysis. The data are expressed as the means ± SEM.

[6] = test system: GlyR subunits α1, α2, α3; heteromeric vs homomeric GlyRs; parameters: method as in Kondratskaya et al., 2005; details: ref Kondratskaya et al., 2005; cited from earlier work

O=c1c(O)c(-c2ccc(O)c(O)c2)oc2cc(O)cc(O)c12 [Quercetin]
IC50 (α1 GlyR [1]): ~45 µM

CCCCCc1cc(O)c2c(c1)OC(C)(C)C1CCC(C)=CC21 (centres unmarked) [THC, Δ^9-tetrahydrocannabiol]
concentration from which potentiation begins (α1 GlyR subunits): ≥ 30 nM | concentration from which potentiation begins (α3 GlyR subunits): ≥ 30 nM

CCCCCC/C=C\CCCCCCCc1cccc(O)c1C(=O)O [ginkgolic acid]
increase of currents induced by subsaturating glycine (heteromeric α1/β GlyRs): 82 ± 39% | increase of currents induced by subsaturating glycine (heteromeric α1/β GlyRs; listed as GA): 82%±39 | effect on currents induced by saturated glycine (heteromeric α1/β GlyRs; glycine 0.3–1 mM): did not increase | effect on Igly at 1 μM (α2 GlyRs; 1 μM ginkgolic acid): not detectable | effect on the amplitude of Igly at low concentrations (α2 GlyRs; ginkgolic acid <10 μM): no effect | overall effect on the amplitude of whole-cell currents ([2]; 25 μM ginkgolic acid): negligible | change of current induced by 100 μM glycine, one cell with weak potentiation ([2]; 25 μM ginkgolic acid, 20–40 sec pre-treatment, one cell): +4% | mean current in the presence of ginkgolic acid ([2]; 25 μM ginkgolic acid, glycine 100 μM, n = 6, control 338 ± 101): 318 ± 96 pA | mean current after washout of ginkgolic acid ([2]; glycine 100 μM, n = 6, control 338 ± 101): 326 ± 113 pA | changes in GABA-evoked currents (GABAAR α1/β2/γ2; 25 μM ginkgolic acid, 20–40 s, GABA 1 μM (EC10) or 10 μM (EC50)): did not observe any changes | mean current after ginkgolic acid application (GABAAR α1/β2/γ2; 25 μM ginkgolic acid, GABA 10 μM, n = 16, control 235 ± 65): 228 ± 63 pA | mean current after washout of ginkgolic acid (GABAAR α1/β2/γ2; GABA 10 μM, n = 16, control 235 ± 65): 232 ± 65 pA | concentrations at which effects on PP2C were caused [3]: > 100 µM | increase in Igly in N2a cells (α1 GlyR [4]): more than twofold increase | threshold of potentiation of α1 GlyR (α1 GlyR [5]): ~30 nM | time of treatment after which potentiation was observed (onset) (α1 GlyR [5]; 30 nM ginkgolic acid, glycine 30 μM): 2 to 3 min | augmentation of Igly after 20–30 s of pre-treatment (α1 GlyR [5]; 100 nM ginkgolic acid, 20–30 s, n = 8): 26 ± 8% | potentiation of Igly following the first 40 s (α1 GlyR [5]; 100 nM ginkgolic acid, 40 s, glycine 30 μM, one cell (Figure 2A)): 54% | average Igly (mean current amplitude) after ginkgolic acid (α1 GlyR [5]; 100 nM ginkgolic acid, glycine 30 μM, n = 8): 467 ± 124 pA | average Igly (mean current amplitude) after ginkgolic acid (α1 GlyR [5]; 100 nM ginkgolic acid, glycine 30 μM, n = 8, listed as GA): 467±124 pA | degree of potentiation of Igly (α1 GlyR [5]; 100 nM ginkgolic acid, 2 min pre-application, glycine 30 μM, n = 8 cells (range in different cells and mean ± SEM)): 51 ± 10% | enhancement of Igly after 30 s (α1 GlyR [5]; 3 μM ginkgolic acid, 30 s, glycine 30 μM): > 30% | effect on amplitudes of currents induced by saturating glycine (α1 GlyR [5]; glycine 0.3–1 mM): not affected

NCC(=O)O [glycine, reference compound]
EC50 ([2]; read-out: EC50 to glycine in control, n = 11): 142 ± 9.8 µM

ginkgolide B
preference for α1 vs. α2 GlyR subunits [6]: about 5 fold | preference for α1 vs. α3 GlyR subunits [6]: ~3 fold

— publication PMC4624854 (Frontiers in Molecular Neuroscience, 2015)
